# According to patent publication US20230077362A1 (CORTEVA AGRISCIENCE LLC, priority 2019, published 2023):
# Like-named read-outs stand apart in the source and are kept apart here.
# How the values were obtained:
# [1] = test system: Beet Armyworm (Spodoptera exigua) ("BAW"), second instar larvae; test: Bioassay on beet armyworm (BAW), 128-well diet tray assay; type: in vivo; conditions: for pest or weed control at 50 µg/cm2: Spodoptera exigua; for BAW rating: Table ABC, species BAW, C = not tested, D = no activity noticed
# Outline: (§1)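 Second-instar larvae on diet in 128-well trays, covered and held at 25° C, 14:10 light-dark, for five to seven days. Percent mortality scored per well and averaged over eight wells; activity reported as a rating category.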
# [2] = test system: Cabbage Looper (Trichoplusia ni) ("CL"), second instar larvae; test: Bioassay on cabbage looper (CL), 128-well diet tray assay; type: in vivo; conditions: for pest or weed control at 50 µg/cm2: Trichoplusia ni; for CL rating: Table ABC, species CL, C = not tested, D = no activity noticed
# Outline: as §1
# [3] = read-out: BAW (Biological Results, rating)
# [4] = read-out: CL (Biological Results, rating)
Compound,"pest or weed control at 50 µg/cm2 [1, 3]","pest or weed control at 50 µg/cm2 [2, 4]",pest or weed control at 50 µg/cm2 ([1]; read-out: BAW rating),pest or weed control at 50 µg/cm2 ([2]; read-out: CL rating),further results
"CC(C)c1ccc(N(C)C)cc1N1C(=O)CS/C1=N\C(=O)Nc1ccc(-c2ncn(-c3ccc(C#N)cc3)n2)cc1F [Compound J290, (Z)-1-(4-(1-(4-Cyanophenyl)-1H-1,2,4-triazol-3-yl)-2-fluorophenyl)-3-(3-(5-(dimethylamino)-2-isopropylphenyl)-4-oxothiazolidin-2-ylidene)urea]",50 to 100%,50 to 100%,,,
"COC(C)c1ccc(C)cc1N1C(=O)CS/C1=N\C(=O)Nc1ccc(-c2ncn(-c3ccc(S(=O)(=O)C(F)(F)F)cc3)n2)cc1F (stereo not drawn) [Compound J361, (Z)-1-(2-Fluoro-4-(1-(4-((trifluoromethyl)sulfonyl)phenyl)-1H-1,2,4-triazol-3-yl)phenyl)-3-(3-(2-(1-methoxyethyl)-5-methylphenyl)-4-oxothiazolidin-2-ylidene)urea]",,,50 to 100%,50 to 100%,
Cc1cc(-c2ncn(-c3ccc(OC(F)(F)F)cc3)n2)ccc1NC(=O)/N=C1\SCC(=O)N1c1cccc(C)c1COCC(F)(F)F [Compound J576],,,,,BAW rating [1]: A (50-100); CL rating [2]: A (50-100)
"COc1cc(COCC(F)(F)F)c(N2C(=O)CS/C2=N\C(=O)Nc2ccc(-c3ncn(-c4ccc(S(F)(F)(F)(F)F)cc4)n3)cc2C#N)cc1OC [Compound J588, (Z)-1-(2-Cyano-4-(1-(4-(pentafluoro-λ^6-sulfaneyl)phenyl)-1H-1,2,4-triazol-3-yl)phenyl)-3-(3-(4,5-dimethoxy-2-((2,2,2-trifluoroethoxy)methyl)phenyl)-4-oxothiazolidin-2-ylidene)urea]",,,50 to 100%,50 to 100%,
"COC(C)c1ccc(C)cc1N1C(=O)CS/C1=N\C(=O)Nc1ccc(-c2ncn(-c3ccc(SC(F)(F)F)cc3)n2)cc1C (stereo not drawn) [Compound J233, (Z)-1-(3-(2-(1-Methoxyethyl)-5-methylphenyl)-4-oxothiazolidin-2-ylidene)-3-(2-methyl-4-(1-(4-((trifluoromethyl)thio)phenyl)-1H-1,2,4-triazol-3-yl)phenyl)urea]",50 to 100%,50 to 100%,,,
"Cc1ccc(C(C)C)c(N2C(=O)CS/C2=N\C(=O)Nc2ccc(-c3cn(-c4ccc(C(F)(F)F)cc4)cn3)cc2)c1 [Compound J514, (Z)-1-(3-(2-Isopropyl-5-methylphenyl)-4-oxothiazolidin-2-ylidene)-3-(4-(1-(4-(trifluoromethyl)phenyl)-1H-imidazol-4-yl)phenyl)urea]",,,50 to 100%,50 to 100%,
Cc1ccc(OCCC(F)(F)F)c(N2C(=O)CS/C2=N\C(=O)Nc2ccc(-c3ncn(-c4ccc(S(F)(F)(F)(F)F)cc4)n3)cc2F)c1 [Compound J447],,,50 to 100%,50 to 100%,
"COC(C)c1ccc(C)cc1N1C(=O)CS/C1=N\C(=O)Nc1ccc(-c2ncn(-c3ccc(OC(F)(F)F)cc3)n2)cc1C#N (stereo not drawn) [Compound J228, (Z)-1-(2-Cyano-4-(1-(4-(trifluoromethoxy)phenyl)-1H-1,2,4-triazol-3-yl)phenyl)-3-(3-(2-(1-methoxyethyl)-5-methylphenyl)-4-oxothiazolidin-2-ylidene)urea]",50 to 100%,50 to 100%,,,
Cc1ccc(COCC(C)(F)F)c(N2C(=O)CS/C2=N\C(=O)Nc2ccc(-c3ncn(-c4ccc(OC(F)(F)F)cc4)n3)cc2C)c1 [Compound J534],,,,,BAW rating [1]: A (50-100); CL rating [2]: A (50-100)
"CC(C)c1ccc(N(C)C)cc1N1C(=O)CS/C1=N\C(=O)Nc1ccc(-c2ncn(-c3ccc(OC(F)(F)F)cc3)n2)cc1C#N [Compound J242, (Z)-1-(2-Cyano-4-(1-(4-(trifluoromethoxy)phenyl)-1H-1,2,4-triazol-3-yl)phenyl)-3-(3-(5-(dimethylamino)-2-isopropylphenyl)-4-oxothiazolidin-2-ylidene)urea]",50 to 100%,50 to 100%,,,
"CC(C)c1cc(F)c(N(C)C)cc1N1C(=O)CS/C1=N\C(=O)Nc1ccc(-c2ncn(-c3ccc(S(=O)(=O)C(F)(F)F)cc3)n2)cc1F [Compound J371, (Z)-1-(3-(5-(dimethylamino)-4-fluoro-2-isopropylphenyl)-4-oxothiazolidin-2-ylidene)-3-(2-fluoro-4-(1-(4-((trifluoromethyl)sulfonyl)phenyl)-1H-1,2,4-triazol-3-yl)phenyl)urea]",,,50 to 100%,50 to 100%,
"Cc1ccc(OCCC(F)(F)F)c(N2C(=O)CS/C2=N\C(=O)Nc2ccc(-c3ncn(-c4ccc(OC(F)(F)F)cc4)n3)cc2C)c1 [Compound J56, (Z)-1-(3-(5-Methyl-2-(3,3,3-trifluoropropoxy)phenyl)-4-oxothiazolidin-2-ylidene)-3-(2-methyl-4-(1-(4-(trifluoromethoxy)phenyl)-1H-1,2,4-triazol-3-yl)phenyl)urea]",50 to 100%,50 to 100%,,,
"CC(C)c1cc(F)c(N(C)C)cc1N1C(=O)CS/C1=N\C(=O)Nc1ccc(-n2cnc(-c3ccc(OC(F)(F)F)cc3)n2)cc1 [Compound J410, (Z)-1-(3-(5-(Dimethylamino)-4-fluoro-2-isopropylphenyl)-4-oxothiazolidin-2-ylidene)-3-(4-(3-(4-(trifluoromethoxy)phenyl)-1H-1,2,4-triazol-1-yl)phenyl)urea]",,,50 to 100%,50 to 100%,
"Cc1ccc(COCC(F)(F)F)c(N2C(=O)CS/C2=N\C(=O)Nc2ccc(-c3noc(-c4ccc(OC(F)(F)F)cc4)n3)cc2F)c1 [Compound J770, (Z)-1-(2-Fluoro-4-(5-(4-(trifluoromethoxy)phenyl)-1,2,4-oxadiazol-3-yl)phenyl)-3-(3-(5-methyl-2-((2,2,2-trifluoroethoxy)methyl)phenyl)-4-oxothiazolidin-2-ylidene)urea]",,,50 to 100%,50 to 100%,
"COC(C)c1ccc(C)cc1N1C(=O)CS/C1=N\C(=O)Nc1ccc(-c2ccn(-c3ccc(C(F)(F)F)cn3)n2)cc1C (stereo not drawn) [Compound J311, (Z)-1-(3-(2-(1-Methoxyethyl)-5-methylphenyl)-4-oxothiazolidin-2-ylidene)-3-(2-methyl-4-(1-(5-(trifluoromethyl)pyridin-2-yl)-1H-pyrazol-3-yl)phenyl)urea]",50 to 100%,50 to 100%,,,
"Cc1ccc(C(C)C)c(N2C(=O)CS/C2=N\C(=O)Nc2ccc(-c3cn(-c4ccc(C(F)(F)F)cn4)cn3)cc2)c1 [Compound J519, (Z)-1-(3-(2-Isopropyl-5-methylphenyl)-4-oxothiazolidin-2-ylidene)-3-(4-(1-(5-(trifluoromethyl)pyridin-2-yl)-1H-imidazol-4-yl)phenyl)urea]",,,50 to 100%,50 to 100%,
"COc1ccc(-n2cnc(-c3ccc(NC(=O)/N=C4\SCC(=O)N4c4cc(C)c(C)cc4COCC(F)(F)F)c(F)c3)n2)cc1 [Compound J756, (Z)-1-(3-(4,5-Dimethyl-2-((2,2,2-trifluoroethoxy)methyl)phenyl)-4-oxothiazolidin-2-ylidene)-3-(2-fluoro-4-(1-(4-methoxyphenyl)-1H-1,2,4-triazol-3-yl)phenyl)urea]",,,50 to 100%,50 to 100%,
"COCOc1cc(-c2ncn(-c3ccc(OC(F)(F)F)cc3)n2)ccc1NC(=O)/N=C1\SCC(=O)N1c1cc(C)ccc1C(C)C [Compound J170, (Z)-1-(3-(2-Isopropyl-5-methylphenyl)-4-oxothiazolidin-2-ylidene)-3-(2-(methoxymethoxy)-4-(1-(4-(trifluoromethoxy)phenyl)-1H-1,2,4-triazol-3-yl)phenyl)urea]",50 to 100%,50 to 100%,,,
"Cc1ccc(COCC(F)(F)F)c(N2C(=O)CS/C2=N\C(=O)Nc2ccc(-c3ncn(-c4ccc(OC(F)(F)F)cn4)n3)cc2F)c1 [Compound J237, (Z)-1-(2-Fluoro-4-(1-(5-(trifluoromethoxy)pyridin-2-yl)-1H-1,2,4-triazol-3-yl)phenyl)-3-(3-(5-methyl-2-((2,2,2-trifluoroethoxy)methyl)phenyl)-4-oxothiazolidin-2-ylidene)urea]",50 to 100%,50 to 100%,,,
"Cc1ccc(COCC(F)(F)F)c(N2C(=O)CS/C2=N\C(=O)Nc2ccc(-c3ncn(-c4ccc(OC(F)(F)F)cc4)n3)cc2Br)c1 [Compound J222, (Z)-1-(2-Bromo-4-(1-(4-(trifluoromethoxy)phenyl)-1H-1,2,4-triazol-3-yl)phenyl)-3-(3-(5-methyl-2-((2,2,2-trifluoroethoxy)methyl)phenyl)-4-oxothiazolidin-2-ylidene)urea]",50 to 100%,50 to 100%,,,
"N#Cc1ccc(OCCC(F)(F)F)c(N2C(=O)CS/C2=N\C(=O)Nc2ccc(-c3ncn(-c4ccc(SC(F)(F)F)cc4)n3)cc2)c1 [Compound J392, (Z)-1-(3-(5-Cyano-2-(3,3,3-trifluoropropoxy)phenyl)-4-oxothiazolidin-2-ylidene)-3-(4-(1-(4-((trifluoromethyl)thio)phenyl)-1H-1,2,4-triazol-3-yl)phenyl)urea]",,,50 to 100%,50 to 100%,
Cc1cc(COCC(F)(F)F)c(N2C(=O)CS/C2=N\C(=O)Nc2ccc(-c3ncn(-c4ccc(C(F)(F)F)cc4)n3)cc2F)cc1C [Compound J660],,,,,BAW rating [1]: A (50-100); CL rating [2]: A (50-100)
Cc1ccc(COCC(F)F)c(N2C(=O)CS/C2=N\C(=O)Nc2ccc(-c3ncn(-c4ccc(C(F)(F)F)cn4)n3)cc2F)c1 [Compound J400],,,,,BAW rating [1]: A (50-100); CL rating [2]: A (50-100)
Cc1cc(-c2ncn(-c3ccc(OC(F)(F)F)cc3)n2)ccc1NC(=O)/N=C1\SCC(=O)N1c1c(COCC(F)(F)F)ccc(C)c1C [Compound J679],,,,,BAW rating [1]: A (50-100); CL rating [2]: A (50-100)
